Measurements from US20240000794A1, “LACTAM AND LACTONE DERIVATIVES FOR USE IN THE TREATMENT OF A VIRAL INFECTION SUCH AS COVID-19” (UNIVERSITÉ CATHOLIQUE DE LOUVAIN, priority 2020, published 2024).
Like-named read-outs stand apart in the source and are kept apart here.

Legend:
[1] = tested on: SARS-CoV-2; format: cell-based; conditions: primary nasal epithelial cells, 10 μM or 1 μM, 48 h post-infection
[2] = tested on: syncytia formation in SARS-CoV-2 infected A549-ACE2/TMPRSS2 cells; format: cell-based
[3] = tested on: SARS-CoV-2; format: cell-based; conditions: Caco-2 cells; for reduction of virus production in the supernatants: after 8, 12 and 24 h, at concentrations as low as 1μM; for reduction of SARS-Cov2 RNA levels in infected cells: after 4 hours
[4] = tested on: SARS-CoV-2; format: cell-based; conditions: 100 μM compound, 24 hours post-infection
[5] = tested on: SARS-CoV-2; format: cell-based; conditions: Calu-3 human lung cells, MOI 0.01, 24 hours post-infection
[6] = tested on: syncytia formation in SARS-CoV-2 infected Vero cells; format: cell-based
[7] = molecular target: SARS-CoV-2 Mpro (Severe acute respiratory syndrome coronavirus 2, UniProt P0DTD1); format: biochemical
[8] = tested on: HCoV-OC43; format: cell-based; conditions: 10 μM, HRT-18G cells
[9] = tested on: SARS-CoV-2; format: cell-based; conditions: primary bronchial epithelial cells, 10 μM or 1 μM, 48 h post-infection
[10] = tested on: SARS-CoV-2; format: cell-based; conditions: Caco-2 cells, MOI 0.01, 24 hours post-infection

SMILES | SARS-Cov2 RNA levels in infected cells [1] | virus production (supernatants titered on Vero cells) [1] | syncytia formation (fusion index) [2] | reduction of virus production in the supernatants [3] | reduction of SARS-Cov2 RNA levels in infected cells [3] | infectivity of SARS-CoV2 in Vero cells [4] | lowest concentration reducing the infectivity of SARS-CoV-2 [5] [nM] | syncytia formation (fusion index) [6] | inhibition of SARS-CoV-2 Mpro ([7]; 10 μM compound, Mpro at 2 μM) | inhibition of SARS-CoV-2 Mpro ([7]; 100 μM compound) | activity on HCov-OC43 [8] | SARS-Cov2 RNA levels in infected cells [9] | virus production (supernatants titered on Vero cells) [9] | lowest concentration reducing the infectivity of SARS-CoV-2 [10] [nM]
O=C1CSC[C@@H](C(=O)O)N1 [lactam 2, (R)-5-oxothiomorpholine-3-carboxylic acid] | reduction in SARS-Cov2 RNA levels | reduction of virus production | reducing syncytia formation | about 100 fold | about 20% | reducing the infectivity | 45 | reducing syncytia formation | about 50% | complete inhibition | active | reduction in SARS-Cov2 RNA levels | reduction of virus production | 45
O=C1CCC[C@@H](C(=O)O)N1 [lactam 3, (S)-6-oxopiperidine-2-carboxylic acid] |  |  |  | about 100 fold | about 20% |  |  |  |  |  |  |  |  | 15
